Measured values reported in paper PMC8535176, “Efficacy of epetraborole against Mycobacterium abscessus is increased with norvaline” (PLoS Pathogens, 2021).
Values after ≈ are worked out from the molar mass of the structure shown. Where two headings read alike, the source gives them in different places.

What was measured:
Test in all cases: microbe, parasite or virus in culture
M. tuberculosis Erdman = tested on: T1, M. tuberculosis Erdman; design: Whole-cell growth inhibition, dose-response MIC (MIC90) by resazurin microtiter assay (REMA), fluorescence read-out; conditions: Mycobacterium tuberculosis, ERDMAN
T1 construct: Erdman

P. aeruginosa = tested on: P. aeruginosa; design: Whole-cell growth inhibition, dose-response MIC (MIC90) by resazurin microtiter assay (REMA), fluorescence read-out; conditions: Pseudomonas aeruginosa
M. tuberculosis H37Rv = tested on: T2, M. tuberculosis H37Rv; design: Whole-cell growth inhibition, dose-response MIC (MIC90) by resazurin microtiter assay (REMA), fluorescence read-out; conditions: Mycobacterium tuberculosis, H37RV
T2 construct: H37Rv

C. glutamicum = tested on: C. glutamicum; design: Whole-cell growth inhibition, dose-response MIC (MIC90) by resazurin microtiter assay (REMA), fluorescence read-out; conditions: Corynebacterium glutamicum
B. cereus = tested on: B. cereus; design: Whole-cell growth inhibition, dose-response MIC (MIC90) by resazurin microtiter assay (REMA), fluorescence read-out; conditions: Bacillus cereus
M. avium hominissuis = tested on: M. avium hominissuis; design: Whole-cell growth inhibition, dose-response MIC (MIC90) by resazurin microtiter assay (REMA), fluorescence read-out; conditions: Mycobacterium avium
E. coli = tested on: E. coli; design: Whole-cell growth inhibition, dose-response MIC (MIC90) by resazurin microtiter assay (REMA), fluorescence read-out; conditions: Escherichia coli
M. abscessus = tested on: M. abscessus; design: Whole-cell growth inhibition, dose-response MIC (MIC90) by resazurin microtiter assay (REMA), fluorescence read-out; conditions: Mycobacteroides abscessus
M. avium intracellulaire = tested on: M. avium intracellulaire; design: Whole-cell growth inhibition, dose-response MIC (MIC90) by resazurin microtiter assay (REMA), fluorescence read-out; conditions: Mycobacterium avium
[1] = tested on: T3, Mycobacteroides abscessus subsp. abscessus MT16_1065; design: species or system M. abscessus; Resazurin microtiter assay (REMA), fluorescence; MIC at 90% growth inhibition from Gompertz fit; conditions: 48 h, smooth morphotype
T3 construct: MT16_1065
Protocol: (§1) MIC values were determined using the resazurin microtiter assay (REMA). Cultures were grown to log phase (OD600 of 0.4–0.8) and diluted to OD600 of 0.005. Drugs were prepared in two-fold serial dilutions in 96-well plates with 90 μL of bacteria per well to a final volume of 100 μL. Plates were incubated at 37°C until drug-free wells were turbid (2 days for M. abscessus). Ten μL of resazurin (0.025% wt/vol) was added to each well. Once the drug-free wells turned pink (one doubling time), the fluorescence (ex/em 560nm/590nm) was measured using an Infinite F200 Tecan plate reader. Fluorescence intensities were converted to % viable cells relative to drug-free conditions and fit to the Gompertz equation using GraphPad Prism version 9. MIC values at 90% growth inhibition were determined from the nonlinear regression Gompertz equation. Next, we tested the in vitro activity of EPT against a panel of M. abscessus clinical isolates belonging to the three subspecies of the M. abscessus complex (M. abscessus, M. massiliense, and M. bolletii) with smooth and rough colony morphologies and with different drug susceptibility profiles to various antibiotics. There was no loss in activity against clinical isolates (range of 0.014–0.046 μg/mL) nor different morphologies (S2 Table). To determine the spectrum of activity of EPT, we curated a panel of various mycobacteria and representative gram-positive and gram-negative bacteria. […] Mycobacteria strains were grown in rolling [compound left out] culture at 37°C in Middlebrook 7H9 (Difco) supplemented with 10% albumin dextrose catalase (ADC), 0.2% glycerol, and 0.05% Tween 80 (7H9 complete) or on 7H10 agar plates supplemented with 10% oleic acid ADC and 0.5% glycerol at 37°C. When mentioned, the carbon source was modified from glycerol to acetate or the detergent Tween 80 was removed from the media. Bacillus cereus (clinical isolate), Corynebacterium glutamicum (ATCC 13032), Escherichia coli, and Pseudomonas aeruginosa PAO1 were grown in LB broth. HepG2 cells (ATCC HB-8065) were grown in Dulbecco’s modified Eagle’s medium (DMEM) with phenol red (from Gibco) supplemented with 10% fetal bovine serum at 37°C with 5% CO2.

[2] = tested on: T4, Mycobacteroides abscessus subsp. massiliense MT15_1748; design: species or system M. abscessus; Resazurin microtiter assay (REMA), fluorescence; MIC at 90% growth inhibition from Gompertz fit; conditions: 48 h, rough morphotype
T4 construct: MT15_1748
Protocol: as §1

[3] = tested on: T5, Mycobacteroides abscessus subsp. massiliense MT15_1749; design: species or system M. abscessus; Resazurin microtiter assay (REMA), fluorescence; MIC at 90% growth inhibition from Gompertz fit; conditions: 48 h, rough morphotype
T5 construct: MT15_1749
Protocol: as §1

[4] = tested on: T6, Mycobacteroides abscessus subsp. abscessus MT16_6490; design: species or system M. abscessus; Resazurin microtiter assay (REMA), fluorescence; MIC at 90% growth inhibition from Gompertz fit; conditions: 48 h, smooth morphotype
T6 construct: MT16_6490
Protocol: as §1

[5] = tested on: T7, Mycobacteroides abscessus subsp. abscessus ATCC 19977; design: species or system M. abscessus; Resazurin microtiter assay (REMA), fluorescence; MIC at 90% growth inhibition from Gompertz fit; conditions: ATCC19977, 48 h, rough morphotype
T7 construct: ATCC 19977
Protocol: as §1

[6] = tested on: T8, Mycobacteroides abscessus subsp. bolletii AV; design: species or system M. abscessus; Resazurin microtiter assay (REMA), fluorescence; MIC at 90% growth inhibition from Gompertz fit; conditions: 48 h, smooth morphotype
T8 construct: AV
Protocol: as §1

[7] = tested on: T9, Mycobacteroides abscessus subsp. bolletii Paris 167; design: species or system M. abscessus; Resazurin microtiter assay (REMA), fluorescence; MIC at 90% growth inhibition from Gompertz fit; conditions: 48 h, rough morphotype, read-out: MIC BDQ
T9 construct: Paris 167
Protocol: as §1

Work on `NCC[C@H](O)C(=O)N[C@@H]1C[C@H](N)[C@@H](O[C@H]2O[C@H](CN)[C@@H](O)[C@H](O)[C@H]2O)[C@H](O)[C@H]1O[C@H]1O[C@H](CO)[C@@H](O)[C@H](N)[C@H]1O` [Amikacin] yielded an MIC (M. tuberculosis Erdman; read-out: MIC (µg/mL) / AMK) of 0.48 µg/mL (≈ 0.82 µM), an MIC (P. aeruginosa; read-out: MIC (µg/mL) / AMK) of 0.22 µg/mL (≈ 0.376 µM) and an MIC (M. tuberculosis H37Rv; read-out: MIC (µg/mL) / AMK) of 0.3 µg/mL (≈ 0.512 µM). For the same molecule, the MIC (C. glutamicum; read-out: MIC (µg/mL) / AMK) was 0.064 µg/mL (≈ 0.109 µM), the MIC (B. cereus; read-out: MIC (µg/mL) / AMK) was 64 µg/mL (≈ 109 µM) and the MIC (M. avium hominissuis; read-out: MIC (µg/mL) / AMK) was 5.6 µg/mL (≈ 9.56 µM). The MIC (E. coli; read-out: MIC (µg/mL) / AMK) was 0.15 µg/mL (≈ 0.256 µM), the MIC (M. abscessus; read-out: MIC (µg/mL) / AMK) was 4.8 µg/mL (≈ 8.2 µM) and the MIC (M. avium intracellulaire; read-out: MIC (µg/mL) / AMK) was 3.8 µg/mL (≈ 6.49 µM). The MIC ([1]; read-out: MIC AMK) was 2.1 µg/mL (≈ 3.59 µM), the MIC ([2]; read-out: MIC AMK) was 14 µg/mL (≈ 23.9 µM) and the MIC ([3]; read-out: MIC AMK) was 8.8 µg/mL (≈ 15 µM). The MIC ([4]; read-out: MIC AMK) was 5.7 µg/mL (≈ 9.73 µM), the MIC ([5]; read-out: MIC AMK) was 2.4 µg/mL (≈ 4.1 µM) and the MIC ([6]; read-out: MIC AMK) was 7 µg/mL (≈ 12 µM).

For `COc1nc2ccc(Br)cc2cc1[C@@H](c1ccccc1)[C@@](O)(CCN(C)C)c1cccc2ccccc12` [Bedaquiline], the MIC (M. tuberculosis Erdman; read-out: MIC (µg/mL) / BDQ) was 0.061 µg/mL (≈ 0.11 µM), the MIC (P. aeruginosa; read-out: MIC (µg/mL) / BDQ) was greater than 7.8 µg/mL and the MIC (M. tuberculosis H37Rv; read-out: MIC (µg/mL) / BDQ) was 0.26 µg/mL (≈ 0.468 µM). For the same molecule, the MIC (C. glutamicum; read-out: MIC (µg/mL) / BDQ) was greater than 7.8 µg/mL, the MIC (B. cereus; read-out: MIC (µg/mL) / BDQ) was greater than 7.8 µg/mL and the MIC (M. avium hominissuis; read-out: MIC (µg/mL) / BDQ) was 0.038 µg/mL (≈ 0.0684 µM). For the same molecule, the MIC (E. coli; table prints MIC, main text calls the EPT values MIC90, read-out: MIC (µg/mL) / BDQ) was greater than 7.8 µg/mL, the MIC (M. abscessus; read-out: MIC (µg/mL) / BDQ) was 0.67 µg/mL (≈ 1.21 µM) and the MIC (M. avium intracellulaire; read-out: MIC (µg/mL) / BDQ) was 0.014 µg/mL (≈ 0.0252 µM). It also gave an MIC ([1]; read-out: MIC BDQ) of 0.36 µg/mL (≈ 0.648 µM), an MIC ([2]; read-out: MIC BDQ) of 0.23 µg/mL (≈ 0.414 µM) and an MIC ([3]; read-out: MIC BDQ) of 0.4 µg/mL (≈ 0.72 µM). For the same molecule, the MIC ([4]; read-out: MIC BDQ) was 0.83 µg/mL (≈ 1.49 µM), the MIC [7] was 0.39 µg/mL (≈ 0.702 µM) and the MIC ([5]; read-out: MIC BDQ) was 0.27 µg/mL (≈ 0.486 µM). It also gave an MIC ([6]; read-out: MIC BDQ) of 1.3 µg/mL (≈ 2.34 µM).
